Tests used:
[1] = test system: Plasmodium berghei ANKA (PbA); test: Parasitemia by thin-blood smear; type: in vivo; conditions: C57Bl/6 mice, 10 mg/kg artesunate Day 5 sc (Example 4)
From the text: (§1) Cryopreserved Plasmodium berghei ANKA (PbA; MR4, Manassas, Va.) was passaged through naïve C57Bl/6 mice. For the experiment, infection was initiated in C57Bl/6 and BALB/c mice by intraperitoneal (ip) injection of 1×10^6 freshly-isolated parasitized erythrocytes (PE) obtained from donor passage mice. Parasitemia was monitored by thin-blood smear stained with modified Geimsa stain (Protocol Hema3 Stain Set, Sigma, Oakville, ON) by counting at least 1500 erythrocytes. The infected mice were monitored for survival, neurological impairment, vascular leakage, parasite burden, and levels of angiogenic factors and markers of endothelial activation.

[2] = test system: Plasmodium berghei ANKA (PbA)-induced experimental cerebral malaria; test: Survival of mice infected with PbA (Kaplan Meier, log rank test); type: in vivo; conditions: C57Bl/6 mice, 10 mg/kg artesunate Day 5 sc, alone (Example 4)
From the text: as §1
Post-infection survival of mice was plotted as Kaplan Meier curves using a log rank test for comparison. Quantitative assessment of ECM-associated neurological impairment (impaired coordination and motor performance) was performed daily using the 10 parameter Rapid Murine Coma and Behavioral Score (RMCBS), as previously described by Carroll R W, et al. 2010 in PLoS ONE 5: e13124. […] Total scores for each mouse were calculated and provided as a percentage of the total possible score. […]
Statistical analysis was performed using GraphPad Prism version 4.00 (San Diego, Calif.). Post-infection survival of mice was plotted as Kaplan Meier curves and assessed using log-rank test. […]

`C[C@H]1[C@H](OC(=O)CCC(=O)O)O[C@@H]2O[C@@]3(C)CC[C@H]4[C@H](C)CC[C@@H]1[C@@]24OO3` [artesunate, reference compound] was tested, and the “parasitemia (parasite burden diminished to pre-ECM levels)” value [1] was less than 2%, the “survival by Day 8 post infection” value [2] was “less than 60%” and the “treated mice that died of ECM” value [2] was 41.7%.

— patent publication US10525106B2, “Angiopoietin-based interventions for treating cerebral malaria” (Regeneron Pharmaceuticals, Inc., priority 2013, dated 2020)
